# Data as given in patent publication US20250082653A1, “THERAPEUTIC PRODUCT IN THE FORM OF A DENTAL GEL” (CB21 PHARMA, S.R.O., priority 2021, published 2025).
# Assays:
# IL-6 = IL-6 production (ELISA) in HGF after P. gingivalis LPS inflammation induction; assay type: cell-based, human; settings: CBD 0.25 and 0.5 μmol/l, 6 and 24 h
# Protocol: (§1) According to the values obtained from the MTT test, two subtoxic concentrations of CBD (0.25 and 0.5 μmol/l) were selected and used to determine its anti-inflammatory effect. Inflammation to HGF was induced by P. gingivalis lipopolysaccharide (LPS) according to How K. Y., Song K. P., Chan K. G., Porphyromonas gingivalis: An Overview of Periodontopathic Pathogen below the Gum Line. Front Microbiol 2016; 7:53. HGFs were seeded in 6-well plates and allowed to grow to confluence. The cells were washed with 1 ml of PBS, and then LPS (1 μg/ml, 2 ml/well) in serum-free culture medium was added, and incubated for 24 hours. A portion of the cells was left without the application of LPS (i.e., without induced inflammation). At the end of the incubation period, CBD in serum-free culture medium at concentrations of 0.25 and 0.5 μmol/l was added (2 ml/well) for 6 and 24 hours, both for cells cultured with LPS and for cells without LPS application. At selected time intervals, the culture medium was collected and stored at −80° C. for further analysis. The levels of proinflammatory interleukins IL-6, IL-8 (Human ELISA Development Kit, Cat. No. 900-K16 and 900-K18, PeproTech, Baria, Czech Republic) and matrix metalloproteinase (MMP-2) (Duo Set ELISA Development System, Cat. No. DY902, R&D, Bio-Techne, UK) were determined by ELISA. […]
# [1] = system: Porphyromonas gingivalis CCM 3985; assay: MIC by microdilution method (CLSI M11), anaerobic; assay type: cell-based; settings: P. gingivalis, 60 h anaerobic incubation, three independent experiments
# Protocol: (§2) Strains Streptococcus mutans CCM 7409 and Porphyromonas gingivalis CCM 3985 were selected for testing. Both were obtained from Czech Collection of Microorganisms (Brno). BHI+kh medium (Brain-heart infusion (Oxoid, UK) enriched with vitamin K (0.001 mg/ml) and hemin ([…])) was used to cultivate S. mutans, and for P. gingivalis medium WCHA—Wilkins-Chalgren agar (HiMedia, India), with 7% sheep erythrocytes and vitamin K (0.001 mg/ml). (Blaskovich M A T, Kavanagh A M, Elliott A G, Zhang B, Ramu S, Amado M et al. The antimicrobial potential of cannabidiol. Commun Biol 2021; 4(1):1-18).
# (§3) The susceptibility of selected microbes to tested substance was verified by the microdilution method according to Clinical and Laboratory Standards Institute (M Methods for Antimicrobial Susceptibility Testing of Anaerobic Bacteria. 9th ed. CLSI standard M11. Wayne, PA: Clinical and Laboratory Standards Institute; 2018).
# (§4) Basic working solutions were prepared from the tested substance by dilution in DMSO. […] The required concentrations of the tested substance were then prepared by serial dilution, dilution factor 1:2. 135 μl of each dilution was pipetted into the wells of a 96-well round-bottomed hardened polystyrene microtiter plate (Gamma České Budějovice, a.s.).
# (§5) From fresh cultures of the test strains on Wilkins-Chalgren agar (WCHA; HiMedia, India), with 7% sheep erythrocytes and vitamin K, suspensions were prepared in BHI+kh at an optical density corresponding to 0.5 degrees McFarland turbidity scale (after subtraction of optical density of the medium). The suspensions were then diluted in the ratio 1:15 (final inoculum concentration 5×10^6 CFU/ml). Individual wells with 135 μl of the CBD solutions and control wells were inoculated with 15 μl of the prepared inoculum.
# (§6) The inoculated microtiter plates were incubated in an Anaerobic Work Station (Ruskinn Technology, UK) with an anaerobic atmosphere (80% N2, 10% CO2 and 10% H2) at 37° C. The incubation was performed for 60 hours for P. gingivalis and 24 hours for S. mutans.
# (§7) The sterility of the medium was checked by transferring 150 μl BHI+kh to three wells of a microtiter plate. […]
# (§8) After evaluating the MIC, the contents of the wells with the highest concentration of CBD and with visible microbial growth were inoculated onto WCHA. […] After 48 hours (S. mutans) or 14 days (P. gingivalis) of incubation in an anaerobic atmosphere, the purity of the grown microbial culture was evaluated. […]
# (§9) The growth of the microbe, which manifested itself by turbidity of the medium or as a sediment at the bottom of the well of the microtiter plate, was monitored in the individual wells of the microtiter plate. […] The minimum inhibitory concentration (MIC) was determined as the lowest concentration of the substance at which no microbial growth was observed. […]
# [2] = system: Streptococcus mutans CCM 7409; assay: MIC by microdilution method (CLSI M11), anaerobic; assay type: cell-based; settings: S. mutans, 24 h anaerobic incubation, three independent experiments
# Protocol: as §2, §3, §4, §5, §6, §7, §8, §9
# gingival fibroblasts = assay: Permeation of CBD into gingival fibroblasts (UHPLC/MS); assay type: in vitro ADME, human; settings: 0.5 μM CBD
# Protocol: Gingival fibroblasts (obtained from three healthy patients) were seeded in a 6-well plate (well area 9.6 cm^2) and allowed to grow until the next day (confluence). CBD was applied to the cells at a concentration of 0.5 μM for 6 and 24 hours. At the end of the incubation period, 250 μl of medium was mixed with 250 μl of methanol with 1% (w/w) HCl and the cells were washed 2× with PBS (1 ml), scraped from 4 wells into PBS (phosphate buffer, 1 ml), centrifuged for 5 minutes at 3000 rpm. After centrifugation, PBS was removed and 0.5 ml of methanol with 1% (w/w) HCl was added and the cells were sonicated (cycle 0.5, amplitude 50, 10 times). The samples were then centrifuged for 2 minutes at 8000 rpm and the supernatant was pipetted into a clean tube and subjected to UHPLC/MS analysis.
# UHPLC/MS analyses were performed on an ACQUITY I Class liquid chromatograph (Waters, Milford, MA, USA). It is a modular system consisting of a chromatographic pump (Binary Solvent Manager), autosampler (Sample Manager) and column thermostat (Column Manager). Kinetex Polar C18 (100×2.1 mm i.d., 2.6 μm; Phenomenex, CA, USA) was used as the analytical column. The system was operated with a gradient elution of the mobile phase (MFA 0.1% formic acid in water, MFB 0.1% formic acid in acetonitrile) at a flow rate of 0.6 ml/min and a temperature of 25° C. The gradient elution had the following parameters: 0 to 11 min 50 to 70% MFB, 11 to 12.5 min 70 to 100% MFB, 12.5 to 13 min 100 to 50% MFB, 13 to 16 min 50% MFB. The injection volume was 2 μl.
# A high resolution Synapt G2-S mass spectrometer (Waters Corp., Manchester, UK) connected to the UPLC system via an electrospray ionization (ESI) interface was used for the metabolic study. The ion source was operated in positive ionization mode with a capillary voltage of 3.0 kV and a sample cone of 30 V. The source temperature and desolvation gas temperature were set at 120° C. and 320° C. The desolvation gas flow rate was 900 l/h. […]
# IL-8 = IL-8 production (ELISA) in HGF after P. gingivalis LPS inflammation induction; assay type: cell-based, human; settings: CBD 0.25 and 0.5 μmol/l, 6 and 24 h
# Protocol: as §1
# [3] = system: human gingival fibroblasts (HGF); assay: MTT cytotoxicity test in human gingival fibroblasts; assay type: cell-based; settings: CBD 0.25 and 0.5 μmol/l; 24 h incubation
# Protocol: In an in vitro study of the effect of cannabidiol (CBD), human gingival fibroblasts (HGF) isolated from gingiva taken from volunteers at the Department of Oral, Maxillofacial and Facial Surgery of the University Hospital and Medical Faculty of Palacký University Olomouc approved by the Ethics Committee of the University Hospital and Medical Faculty of Palacký University Olomouc (2019) were used. In the first phase of the experiment, a safe CBD concentration was determined based on the results of MTT, which is cytotoxicity test based on the reduction of 3-(4,5-dimethylthiazol-2-yl)-2,5-diphenyltetrazolium bromide (MTT) to the corresponding formazane. The test was performed according to M. D. Maines, L. G. Costa, D. J. Reed, et al. Current protocols in toxicology. New York: John Wiley & Sons. (1998).
# Cells seeded in a 96-well plate at a count of 3×10^4 cells/ml and 100 μl/well, which were […], 100 μl MTT was added (0.5 mg/ml in serum-free culture medium), the mixture was incubated for 2 h. After the incubation period and aspiration of the MTT mixture, 100 μl DMSO (dimethyl sulfoxide) with NH3 (1%, v/v) was added. Absorbance was measured at 540 nm.
# [4] = system: matrix metalloproteinase (MMP-2); assay: MMP-2 production (ELISA) in HGF after P. gingivalis LPS inflammation induction; assay type: cell-based, human; settings: CBD 0.25 and 0.5 μmol/l, 6 and 24 h
# Protocol: as §1
smiles,measurement,setting,value
"C=C(C)[C@@H]1CCC(C)=C[C@H]1c1c(O)cc(CCCCC)cc1O [CBD, cannabidiol]",levels of IL-6,IL-6,decrease
same,MIC range,[1],1 to 2 µg/mL
same,MIC,"[1]; Porphyromonas gingivalis, CCM3985, read-out: MIC median",1.5 µg/mL
same,MIC range,[2],16 µg/mL
same,MIC,"[2]; Streptococcus mutans, CCM7409, read-out: MIC median",16 µg/mL
same,absorption of CBD by gingival fibroblasts,"gingival fibroblasts; 6 and 24 h, cell lysates",absorbed relatively quickly
same,CBD in the culture medium,"gingival fibroblasts; 6 and 24 h incubation, UHPLC/MS",not detected
same,metabolites of CBD,gingival fibroblasts; after 24 h of cultivation,no metabolites of CBD were identified
same,levels of IL-8,IL-8,decrease
same,Cytotoxicity by MTT test,[3],subtoxic
same,MMP-2 levels,[4],no significant changes
